The test addresses Protein farnesyltransferase (Homo sapiens, UniProt P49354+P49356). The test is described as follows: Inhibition of FTase. It is filed as protein-complex assay.

Data on 40 compounds can be found in ChEMBL document CHEMBL1146131, “3D-QSAR studies of farnesyltransferase inhibitors: a comparative molecular field analysis approach” (Bioorg Med Chem Lett, 2006).

Structures are written as SMILES.

For `Cn1cncc1C(OCc1ccc(C#N)cc1C(=O)Nc1cccc(Cl)c1)c1ccc(C#N)cc1` (stereo not given), it took 759 nM to reach half-maximal inhibition (IC50).

The compound `Cn1cncc1C(OCc1ccc(C#N)cc1-c1cccc(Cl)c1)c1ccc(C(F)(F)F)cc1` (stereo not given) gave a concentration for half-maximal inhibition (IC50) of 1120 nM.

With `CCOc1ccc(-c2cc(C#N)ccc2COC(c2ccc(C#N)cc2)c2cncn2C)cc1` (stereo not given), the IC50 was 1200 nM.

As for `COc1cccc(-c2cc(NS(C)(=O)=O)ccc2COC(c2ccc(C#N)cc2)c2cncn2C)c1` (stereo not given), half-maximal inhibition (IC50) required 35500 nM. To `N#Cc1ccc(C(OCc2ccc(C#N)cc2-c2ccc3c(c2)OCO3)c2cnccc2Cl)cc1` (stereo not given) belongs 15100 nM; to `COC(=O)c1ccc(COC(c2ccc(C#N)cc2)c2cncn2C)c(-c2cccc(OC)c2)c1` (stereo not given), 13200 nM; to `Cn1cncc1C(OCc1ccc(C#N)cc1NS(=O)(=O)c1cccs1)c1ccc(C#N)cc1` (stereo not given), 891 nM. Compound `Cn1cncc1C(OCc1ccc(C#N)cc1-c1cccc(Cl)c1)c1ccc(C#N)cc1F` (stereo not given) gave an IC50 of 776 nM. To `Cn1cncc1C(OCc1ccc(C#N)cc1-c1ccc2c(c1)OC(F)(F)O2)c1ccc(C#N)cc1` (stereo not given) belongs 1120 nM; to `Cn1cncc1C(OCc1ccc(C#N)cc1NCc1cc(F)cc(F)c1)c1ccc(C#N)cc1` (stereo not given), 617 nM.

`COc1cccc(-c2cc(C#N)ccc2COC(c2ccc(C#N)c(Cl)c2)c2cncn2C)c1` (stereo not given): 977 nM corresponded to half-maximal inhibition (IC50). On to `CCOc1cccc(-c2cc(Cl)ccc2COC(c2ccc(C#N)cc2)c2cncn2C)c1` (stereo not given), for which the half-inhibitory concentration (IC50) is 1120 nM.

For the compound `Cn1cncc1C(OCc1ccc(Cl)cc1-c1cccc(Cl)c1)c1ccc(C#N)cc1` (stereo not given), half-maximal inhibition (IC50) required 813 nM.

`Cc1ncc(C(OCc2ccc(C#N)cc2-c2cccc(Cl)c2)c2ccc(C#N)cc2)n1C` (stereo not given): it took 2040 nM to reach half-maximal inhibition (IC50).

Regarding `COCC(=O)Nc1ccc(COC(c2ccc(C#N)cc2)c2cncn2C)c(-c2cccc(OC)c2)c1` (stereo not given), half-maximal inhibition (IC50) required 11200 nM. To `COc1cccc(-c2cc(Cl)ccc2COC(c2ccc(C#N)cc2)c2cncn2C)c1` (stereo not given) belongs 912 nM; to `Cn1cncc1C(OCc1ccc(C#N)cc1-c1ccc2c(c1)OCO2)c1ccc(C#N)cc1` (stereo not given), 871 nM. The figure for `Cn1cncc1C(OCc1ccc(Cl)cc1-c1ccc(Cl)cc1)c1ccc(C#N)cc1` (stereo not given) is 4900 nM; for `Cn1cncc1C(OCc1ccc(C#N)cc1NS(=O)(=O)c1cccc2ccccc12)c1ccc(C#N)cc1` (stereo not given) it is 2630 nM; for `Cn1cncc1C(OCc1ccc(C#N)cc1-c1cccc(Cl)c1)c1ccc(C#N)cc1` (stereo not given) it is 871 nM. To `Cn1cncc1C(OCc1ccc(C#N)cc1NC(=O)c1ccccc1)c1ccc(C#N)cc1` (stereo not given) belongs 5010 nM; to `COc1ccc(-c2cc(C#N)ccc2COC(c2ccc(C#N)cc2)c2cncn2C)cc1` (stereo not given), 977 nM. For `COCc1cccc(-c2cc(C#N)ccc2COC(c2ccc(C#N)cc2)c2cncn2C)c1` (stereo not given), the 50% inhibitory concentration (IC50) is 191 nM.

For `Cn1cncc1C(OCc1ccc(C#N)cc1-c1cccc(Cl)c1)c1ccc(C#N)c(F)c1` (stereo not given), half-maximal inhibition (IC50) required 447 nM. The figure for `Cn1cncc1C(OCc1ccc(C#N)cc1-c1cccc2ccccc12)c1ccc(C#N)cc1` (stereo not given) is 955 nM; for `Cn1cncc1C(OCc1ccc(C#N)cc1-c1cc(F)cc(F)c1)c1ccc(C#N)cc1` (stereo not given) it is 1000 nM; for `Cn1cncc1C(OCc1ccc(C#N)cc1-c1cccc(OC(F)(F)F)c1)c1ccc(C#N)cc1` (stereo not given) it is 851 nM. To `Cc1ccc(-c2cc(C#N)ccc2COC(c2ccc(C#N)cc2)c2cncn2C)cc1` (stereo not given) belongs 1120 nM; to `COc1cccc(-c2cc([N+](=O)[O-])ccc2COC(c2ccc(C#N)cc2)c2cncn2C)c1` (stereo not given), 1120 nM. To `Cc1ncc(C(OCc2ccc(C#N)cc2-c2ccc3c(c2)OCO3)c2ccc(C#N)cc2)n1C` (stereo not given) belongs 1620 nM; to `COc1cccc(-c2cc(N)ccc2COC(c2ccc(C#N)cc2)c2cncn2C)c1` (stereo not given), 40700 nM. Regarding `COc1cccc(-c2cc(C#N)ccc2COC(c2ccc(Cl)cc2)c2cncn2C)c1` (stereo not given), the 50% inhibitory concentration (IC50) is 2040 nM. To `COc1cccc(-c2cc(C=O)ccc2COC(c2ccc(C#N)cc2)c2cncn2C)c1` (stereo not given) belongs 1620 nM. To `Cc1ccc(S(=O)(=O)Nc2cc(C#N)ccc2COC(c2ccc(C#N)cc2)c2cncn2C)cc1` (stereo not given) belongs 1000 nM. To `N#Cc1ccc(C(OCc2ccc(C#N)cc2-c2cccc(Cl)c2)c2cncs2)cc1` (stereo not given) belongs 4070 nM; to `COc1cccc(-c2cc(C(=O)O)ccc2COC(c2ccc(C#N)cc2)c2cncn2C)c1` (stereo not given), 83200 nM; to `Cn1cncc1C(OCc1ccc(C#N)cc1-c1cccc2cccnc12)c1ccc(C#N)cc1` (stereo not given), 5250 nM. `Cn1cncc1C(OCc1ccc(Cl)cc1-c1ccccc1Cl)c1ccc(C#N)cc1` (stereo not given) showed an IC50 of 8910 nM. The figure for `Cn1cncc1C(OCc1ccc(C#N)cc1C(=O)Nc1ccccc1)c1ccc(C#N)cc1` (stereo not given) is 2240 nM. To `CCOc1cccc(-c2cc(C#N)ccc2COC(c2ccc(C#N)cc2)c2cncn2C)c1` (stereo not given) belongs 692 nM.

Broadly, the IC50 is the concentration that inhibits the measured activity by half. Low readings indicate inhibition by little substance, high ones a need for much substance.
